Laboratory results: patent publication US20240124444A1 (Celgene Corporation, priority 2020, published 2024)
Like-named read-outs stand apart in the source and are kept apart here.

Test system: C. parvum strain UGA1
Assay: C. parvum growth inhibition assay (Nluc luminescence in HCT-8 cells)
Format: cell-based, Cryptosporidium parvum
Conditions: Cryptosporidium parvum; for EC50: HCT-8, 48 h, C. parvum growth inhibition in HCT-8 cells, 48 hours, 6 concentrations 10-0.04 μM; for inhibition at 1 µM / inhibition at 10 µM: HCT-8; for inhibition at 1 µM: read-out: % inh @ 1 uM C. parvum; for inhibition at 10 µM: read-out: % inh @ 10 uM C. parvum
[1] = single point inhibition @ 10 uM
[2] = single point inhibition at 1 uM
[3] = single point inhibition at 10 uM

SMILES	EC50 [µM]	inhibition at 1 µM [2] [%]	inhibition at 10 µM [3] [%]	other results
Cc1cc(-c2cc3cnc(NC4CCNCC4)cc3n2C)ncn1 [Example 120, 1-methyl-2-(6-methylpyrimidin-4-yl)-N-(piperidin-4-yl)-1H-pyrrolo[3,2-c]pyridin-6-amine]	> 1			
c1ccc(-c2cc3cnc(NC4CCOCC4)cc3[nH]2)nc1 [Example 349, 2-(pyridin-2-yl)-N-(tetrahydro-2H-pyran-4-yl)-1H-pyrrolo[3,2-c]pyridin-6-amine]	> 1			
CSc1ccc(Nc2cc3c(cn2)cc(-c2cnn(C)c2)n3C)cc1 [Example 193, 1-methyl-2-(1-methyl-1H-pyrazol-4-yl)-N-(4-(methylthio)phenyl)-1H-pyrrolo[3,2-c]pyridin-6-amine]				inhibition at 1 µM (single point inhibition @ 1 uM): 0 to 33%; inhibition at 10 µM [1]: 67 to 100%
Cc1cc(-c2cc3cnc(NC(=O)c4cnn(C)c4)cc3[nH]2)ncn1 [Example 328, 1-methyl-N-(2-(6-methylpyrimidin-4-yl)-1H-pyrrolo[3,2-c]pyridin-6-yl)-1H-pyrazole-4-carboxamide]		0 to 33	0 to 33	
Cn1ncc2ccc(Nc3cc4[nH]c(-c5ccncc5)cc4cn3)cc21 [Example 195, 1-methyl-N-(2-(pyridin-4-yl)-1H-pyrrolo[3,2-c]pyridin-6-yl)-1H-indazol-6-amine]				inhibition at 1 µM (single point inhibition @ 1 uM): 67 to 100%; inhibition at 10 µM [1]: 67 to 100%
Cn1cc(C(=O)Nc2cc3[nH]c(-c4cnn(C)c4)cc3cn2)cn1 [Example 331, 1-methyl-N-(2-(1-methyl-1H-pyrazol-4-yl)-1H-pyrrolo[3,2-c]pyridin-6-yl)-1H-pyrazole-4-carboxamide]		0 to 33	0 to 33	
CC(C)C(=O)Nc1cc2[nH]c(-c3ccncc3)cc2cn1 [Example 78, N-(2-(pyridin-4-yl)-1H-pyrrolo[3,2-c]pyridin-6-yl)isobutyramide]	> 1			inhibition at 1 µM (single point inhibition @ 1 uM): 33 to 66%; inhibition at 10 µM [1]: 67 to 100%
Cc1cc(-c2cc3cnc(NC4CCOCC4)cc3n2C)ccn1 [Example 59, 1-methyl-2-(2-methylpyridin-4-yl)-N-(tetrahydro-2H-pyran-4-yl)-1H-pyrrolo[3,2-c]pyridin-6-amine]	> 1			
O=C(Nc1cc2[nH]c(-c3nc(C(F)(F)F)cs3)cc2cn1)C1CC1 [Example 104, N-(2-(4-(trifluoromethyl)thiazol-2-yl)-1H-pyrrolo[3,2-c]pyridin-6-yl)cyclopropanecarboxamide]	> 1			
Cn1c(-c2cccnc2)cc2cnc(Nc3cccc(-c4nc[nH]n4)c3)cc21 [Example 275, N-(3-(1H-1,2,4-triazol-3-yl)phenyl)-1-methyl-2-(pyridin-3-yl)-1H-pyrrolo[3,2-c]pyridin-6-amine]		0 to 33	0 to 33	
Cn1cc(C(=O)Nc2cc3[nH]c(-c4ccnc(OCCC(F)(F)F)n4)cc3cn2)cn1 [Example 213, 1-methyl-N-(2-(2-(3,3,3-trifluoropropoxy)pyrimidin-4-yl)-1H-pyrrolo[3,2-c]pyridin-6-yl)-1H-pyrazole-4-carboxamide]		0 to 33	67 to 100	
Cn1c(C(F)(F)F)cc2cnc(NC(=O)C3CC3)cc21 [Example 77, N-(1-methyl-2-(trifluoromethyl)-1H-pyrrolo[3,2-c]pyridin-6-yl)cyclopropanecarboxamide]	> 1			
Cc1cc(Nc2cc3[nH]c(-c4ccnc(C#N)c4)cc3cn2)cc(-n2cncn2)c1 [Example 339, 4-(6-(3-methyl-5-(1H-1,2,4-triazol-1-yl)phenylamino)-1H-pyrrolo[3,2-c]pyridin-2-yl)picolinonitrile]		0 to 33	0 to 33	
Cc1cc(-c2cc3cnc(NC(=O)CC4COC4)cc3[nH]2)ccn1 [Example 165, N-(2-(2-methylpyridin-4-yl)-1H-pyrrolo[3,2-c]pyridin-6-yl)-2-(oxetan-3-yl)acetamide]				inhibition at 1 µM (single point inhibition @ 1 uM): 0 to 33%; inhibition at 10 µM [1]: 67 to 100%
Cn1cc(C(=O)Nc2cc3[nH]c(-c4cc(C#N)ccn4)cc3cn2)cn1 [Example 300, N-(2-(4-cyanopyridin-2-yl)-1H-pyrrolo[3,2-c]pyridin-6-yl)-1-methyl-1H-pyrazole-4-carboxamide]		0 to 33	0 to 33	
Cn1cc(C(=O)Nc2cc3[nH]c(-c4nc[nH]n4)cc3cn2)cn1 [Example 264, N-(2-(1H-1,2,4-triazol-3-yl)-1H-pyrrolo[3,2-c]pyridin-6-yl)-1-methyl-1H-pyrazole-4-carboxamide]		0 to 33	0 to 33	
COc1nccc(-c2cc3cnc(NC(=O)c4cccc5c4cnn5C)cc3[nH]2)n1 [Example 220, N-(2-(2-methoxypyrimidin-4-yl)-1H-pyrrolo[3,2-c]pyridin-6-yl)-1-methyl-1H-indazole-4-carboxamide]		0 to 33	33 to 66	
FC(F)(F)CNc1nccc(-c2cc3cnc(NC4CCOC4)cc3[nH]2)n1 (stereo in doubt) [Example 374, (S)-N-(tetrahydrofuran-3-yl)-2-(2-(2,2,2-trifluoroethylamino)pyrimidin-4-yl)-1H-pyrrolo[3,2-c]pyridin-6-amine]	0.5 to 1			

SMILES	EC50 [µM]	inhibition at 1 µM [2] [%]	inhibition at 10 µM [3] [%]	other results
Cn1cc(-c2cc3cnc(NC(=O)C4CC4)cc3n2C)cn1 [Example 102, N-(1-methyl-2-(1-methyl-1H-pyrazol-4-yl)-1H-pyrrolo[3,2-c]pyridin-6-yl)cyclopropanecarboxamide]	> 1			
Cc1cc(-c2cc3cnc(NC(=O)C4CCCOC4)cc3[nH]2)ccn1 (stereo not shown) [Example 155, N-(2-(2-methylpyridin-4-yl)-1H-pyrrolo[3,2-c]pyridin-6-yl)tetrahydro-2H-pyran-3-carboxamide]				inhibition at 1 µM (single point inhibition @ 1 uM): 0 to 33%; inhibition at 10 µM [1]: 67 to 100%
Cc1ncc(-c2cc3cnc(NC(=O)C4CC4)cc3[nH]2)s1 [Example 101, N-(2-(2-methylthiazol-5-yl)-1H-pyrrolo[3,2-c]pyridin-6-yl)cyclopropanecarboxamide]	> 1			
Cc1cc(-c2cc3cnc(NC(=O)C(C)C)cc3[nH]2)ccn1 [Example 160, N-(2-(2-methylpyridin-4-yl)-1H-pyrrolo[3,2-c]pyridin-6-yl)isobutyramide]				inhibition at 1 µM (single point inhibition @ 1 uM): 0 to 33%; inhibition at 10 µM [1]: 67 to 100%
Cc1cc(-c2cc3cnc(NC(=O)c4cnn(C5CCCC5)c4)cc3[nH]2)ccn1 [Example 84, 1-cyclopentyl-N-(2-(2-methylpyridin-4-yl)-1H-pyrrolo[3,2-c]pyridin-6-yl)-1H-pyrazole-4-carboxamide]	> 1			inhibition at 1 µM (single point inhibition @ 1 uM): 67 to 100%; inhibition at 10 µM [1]: 0 to 33%
Cc1cc(-c2[nH]c3cc(NC4CCCCC4)ncc3c2C)ccn1 [Example 369, N-cyclohexyl-3-methyl-2-(2-methylpyridin-4-yl)-1H-pyrrolo[3,2-c]pyridin-6-amine]	> 1			
Cc1cc(-c2cc3cnc(NC(=O)C4CCC4)cc3[nH]2)ncn1 [Example 98, N-(2-(6-methylpyrimidin-4-yl)-1H-pyrrolo[3,2-c]pyridin-6-yl)cyclobutanecarboxamide]	> 1			
Cc1ccnc(-c2cc3cnc(NC(=O)C4CC4)cc3n2C)c1 [Example 73, N-(1-methyl-2-(4-methylpyridin-2-yl)-1H-pyrrolo[3,2-c]pyridin-6-yl)cyclopropanecarboxamide]	> 1			
COc1nccc(-c2cc3cnc(NC(=O)c4cn(CC5CCOC5)nc4C)cc3[nH]2)n1 (stereo in doubt) [Example 246, (R)-N-(2-(2-methoxypyrimidin-4-yl)-1H-pyrrolo[3,2-c]pyridin-6-yl)-3-methyl-1-((tetrahydrofuran-3-yl)methyl)-1H-pyrazole-4-carboxamide]		0 to 33	0 to 33	
Cc1cc(C(=O)Nc2cc3[nH]c(-c4ccncc4)cc3cn2)nn1C [Example 282, 1,5-dimethyl-N-(2-(pyridin-4-yl)-1H-pyrrolo[3,2-c]pyridin-6-yl)-1H-pyrazole-3-carboxamide]		0 to 33	0 to 33	
Cc1cc(-c2cc3cnc(NC(=O)c4cccc5[nH]ncc45)cc3[nH]2)ccn1 [Example 289, N-(2-(2-methylpyridin-4-yl)-1H-pyrrolo[3,2-c]pyridin-6-yl)-1H-indazole-4-carboxamide]		0 to 33	0 to 33	
Cc1cc(-c2[nH]c3cc(NC4CCOCC4)ncc3c2C)ccn1 [Example 362, 3-methyl-2-(2-methylpyridin-4-yl)-N-(tetrahydro-2H-pyran-4-yl)-1H-pyrrolo[3,2-c]pyridin-6-amine]	> 1			
CCOc1nccc(-c2cc3cnc(NC(=O)c4cn(CC5CCCO5)nc4C)cc3[nH]2)n1 (stereo in doubt) [Example 322, (S)-N-(2-(2-ethoxypyrimidin-4-yl)-1H-pyrrolo[3,2-c]pyridin-6-yl)-3-methyl-1-((tetrahydrofuran-2-yl)methyl)-1H-pyrazole-4-carboxamide]		0 to 33	0 to 33	
CO[C@H]1CC[C@@H](Nc2cc3[nH]c(-c4cccnc4)cc3cn2)CC1 [Example 228, N-((1s,4s)-4-methoxycyclohexyl)-2-(pyridin-3-yl)-1H-pyrrolo[3,2-c]pyridin-6-amine]		33 to 66	33 to 66	
COc1nccc(-c2cc3cnc(NC(=O)c4cnn(C5CCCC5)c4)cc3[nH]2)n1 [Example 183, 1-cyclopentyl-N-(2-(2-methoxypyrimidin-4-yl)-1H-pyrrolo[3,2-c]pyridin-6-yl)-1H-pyrazole-4-carboxamide]				inhibition at 1 µM (single point inhibition @ 1 uM): 0 to 33%; inhibition at 10 µM [1]: 67 to 100%
CN1CCC(C(=O)Nc2cc3[nH]c(C(F)(F)F)cc3cn2)CC1 [Example 109, 1-methyl-N-(2-(trifluoromethyl)-1H-pyrrolo[3,2-c]pyridin-6-yl)piperidine-4-carboxamide]	> 1			
FC(F)(F)COc1nccc(-c2cc3cnc(NC4CCOCC4)cc3[nH]2)n1 [Example 380, N-(tetrahydro-2H-pyran-4-yl)-2-(2-(2,2,2-trifluoroethoxy)pyrimidin-4-yl)-1H-pyrrolo[3,2-c]pyridin-6-amine]	> 1			
